ChEMBL document CHEMBL6087454, “Identification of Novel Organo-Se BTSA-Based Derivatives as Potent, Reversible, and Selective PPARγ Covalent Modulators for Antidiabetic Drug Discovery” (J Med Chem, 2025)
The source made the active and inactive calls. No cut-off for these calls is given here.

Assays:
[1] = target: T1, Peroxisome proliferator-activated receptor gamma (Homo sapiens, UniProt P37231); experiment: Displacement of fluormone pan-PPAR green from recombinant GST-tagged human PPAR-gamma ligand binding domain (E235 to Y505 residues) extracted from Escherichia coli BL21 (DE3) cells by TR-FRET assay
T1 sequence (P37231 whole entry): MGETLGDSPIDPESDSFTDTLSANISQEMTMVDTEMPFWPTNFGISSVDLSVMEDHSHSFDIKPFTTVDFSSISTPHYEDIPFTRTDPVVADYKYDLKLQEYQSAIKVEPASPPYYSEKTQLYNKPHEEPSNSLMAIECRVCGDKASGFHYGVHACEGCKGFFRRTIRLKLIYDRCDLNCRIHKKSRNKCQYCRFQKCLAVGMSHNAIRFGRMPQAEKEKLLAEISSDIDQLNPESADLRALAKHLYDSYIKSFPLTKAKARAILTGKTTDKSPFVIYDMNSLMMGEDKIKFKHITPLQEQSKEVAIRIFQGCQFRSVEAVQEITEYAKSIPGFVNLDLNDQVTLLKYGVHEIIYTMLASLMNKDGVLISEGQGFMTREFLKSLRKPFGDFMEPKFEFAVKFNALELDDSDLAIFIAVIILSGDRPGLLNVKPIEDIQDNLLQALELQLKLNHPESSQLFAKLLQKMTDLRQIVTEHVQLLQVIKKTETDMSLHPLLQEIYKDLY

[2] = target: T2, Peroxisome proliferator-activated receptor gamma (Homo sapiens) (UniProt P37231); experiment: Covalent binding affinity to recombinant PPAR-gamma ligand binding domain (unknown origin) at Cys285 residue at 0.4 uM incubated for 30 mins by rhodamine-maleimide staining based SDS-PAGE analysis; conditions: filed as partial agonist
T2 sequence (whole entry): T1 sequence (P37231 whole entry)

3T3-L1 [3] = experiment: Inhibition of adipogenesis in mouse 3T3-L1 cells assessed as downregulation of aP2 gene expression at 1 uM measured after 48 hrs by RT-qPCR analysis; assay type: functional, cell-based
3T3-L1 [4] = experiment: Inhibition of adipogenesis in mouse 3T3-L1 cells assessed as downregulation of LPL gene expression at 1 uM measured after 48 hrs by RT-qPCR analysis; assay type: functional, cell-based
3T3-L1 [5] = experiment: Insulin sensitizing activity in mouse 3T3-L1 cells assessed as downregulation of SOCS3 gene expression at 1 uM measured after 48 hrs by RT-qPCR analysis; assay type: functional, cell-based
Mus musculus [6] = experiment: Antidiabetic activity in male db/db mouse model assessed as improvement in glucose tolerance at 2.5 to 10 mg/kg/day, ip preadministered for 4 weeks followed by glucose administration after 4 to 6 hrs of fasting and measured after 120 mins by intraperitoneal glucose tolerance test; assay type: functional, organism-based; conditions: dose 2.5-10 mg/kg/day
[7] = Toxicity in male db/db mouse model assessed as effect on spleen morphology at 2.5 to 10 mg/kg/day, ip administered for 4 weeks; assay type: organism-based; conditions: in vivo, 672 h, dose 2.5-10 mg/kg/day
[8] = Toxicity in male db/db mouse model assessed as effect on liver weight at 2.5 to 5 mg/kg, ip administered for 4 weeks; assay type: organism-based; conditions: in vivo, 672 h, dose 2.5-5 mg/kg
[9] = Toxicity in male db/db mouse model assessed as effect on liver morphology at 2.5 to 5 mg/kg, ip administered for 4 weeks; assay type: organism-based; conditions: in vivo, 672 h, dose 2.5-5 mg/kg
[10] = Toxicity in male db/db mouse model assessed as increase in white adipose tissue weight at 2.5 to 10 mg/kg/day, ip administered for 4 weeks; assay type: organism-based; conditions: in vivo, 672 h, dose 2.5-10 mg/kg/day
[11] = Toxicity in male db/db mouse model assessed as increase in lipid accumulation in liver at 2.5 to 10 mg/kg/day, ip administered for 4 weeks by Oil red O staining based analysis; assay type: organism-based; conditions: in vivo, 672 h, dose 2.5-10 mg/kg/day
Mus musculus [12] = experiment: In vivo inhibition of Erk/Cdk5-mediated PPAR-gamma phosphorylation at Ser273 residue in male db/db mouse model assessed as decrease in phosphorylated-MEK expression in white adipose tissue at 2.5 to 10 mg/kg/day, ip administered for 4 weeks by Western blotting analysis; assay type: functional, organism-based; conditions: dose 2.5-10 mg/kg/day
Mus musculus [13] = experiment: In vivo inhibition of Erk/Cdk5-mediated PPAR-gamma phosphorylation at Ser273 residue in male db/db mouse model assessed as decrease in phosphorylated-MEK expression in liver at 2.5 to 10 mg/kg/day, ip administered for 4 weeks by Western blotting analysis; assay type: functional, organism-based; conditions: dose 2.5-10 mg/kg/day
Mus musculus [14] = experiment: Antidiabetic activity in male db/db mouse model assessed as decrease in PDK4 protein abundance in white adipose tissue at 2.5 to 10 mg/kg/day, ip administered for 4 weeks by Western blotting analysis; assay type: functional, organism-based; conditions: dose 2.5-10 mg/kg/day
Mus musculus [15] = experiment: Antidiabetic activity in male db/db mouse model assessed as increase in ANGPTL4 protein abundance in liver at 2.5 to 10 mg/kg/day, ip administered for 4 weeks by Western blotting analysis; assay type: functional, organism-based; conditions: dose 2.5-10 mg/kg/day
Mus musculus [16] = experiment: Antidiabetic activity in male db/db mouse model assessed as increase in ADIPOQ protein abundance in liver at 2.5 to 10 mg/kg/day, ip administered for 4 weeks by Western blotting analysis; assay type: functional, organism-based; conditions: dose 2.5-10 mg/kg/day
Mus musculus [17] = experiment: Antidiabetic activity in male db/db mouse model assessed as increase in Glut4 protein abundance in liver at 2.5 to 10 mg/kg/day, ip administered for 4 weeks by Western blotting analysis; assay type: functional, organism-based; conditions: dose 2.5-10 mg/kg/day
Mus musculus [18] = experiment: Downregulation of PPAR-gamma protein expression in male db/db mouse liver at 2.5 to 10 mg/kg/day, ip administered for 4 weeks by Western blotting analysis; assay type: functional, organism-based; conditions: dose 2.5-10 mg/kg/day
Mus musculus [19] = experiment: Effect on pRb protein expression in male db/db mouse liver at 2.5 to 10 mg/kg/day, ip administered for 4 weeks by Western blotting analysis; assay type: functional, organism-based; conditions: dose 2.5-10 mg/kg/day
Mus musculus [20] = experiment: Antidiabetic activity in male db/db mouse model assessed as downregulation of PTP1B gene expression in white adipose tissue at 2.5 to 10 mg/kg/day, ip administered for 4 weeks by RT-qPCR analysis; assay type: functional, organism-based; conditions: dose 2.5-10 mg/kg/day
Mus musculus [21] = experiment: Antidiabetic activity in male db/db mouse model assessed as downregulation of PPARgamma gene expression in white adipose tissue at 2.5 to 10 mg/kg/day, ip administered for 4 weeks by RT-qPCR analysis; assay type: functional, organism-based; conditions: dose 2.5-10 mg/kg/day
Mus musculus [22] = experiment: Antidiabetic activity in male db/db mouse model assessed as downregulation of LPL gene expression in white adipose tissue at 2.5 to 10 mg/kg/day, ip administered for 4 weeks by RT-qPCR analysis; assay type: functional, organism-based; conditions: dose 2.5-10 mg/kg/day
Mus musculus [23] = experiment: Antidiabetic activity in male db/db mouse model assessed as downregulation of FASN gene expression in white adipose tissue at 2.5 to 10 mg/kg/day, ip administered for 4 weeks by RT-qPCR analysis; assay type: functional, organism-based; conditions: dose 2.5-10 mg/kg/day
Mus musculus [24] = experiment: Antidiabetic activity in male db/db mouse model assessed as downregulation of SOCS3 gene expression in liver at 2.5 to 10 mg/kg/day, ip administered for 4 weeks by RT-qPCR analysis; assay type: functional, organism-based; conditions: dose 2.5-10 mg/kg/day
Mus musculus [25] = experiment: Antidiabetic activity in male db/db mouse model assessed as downregulation of aP2 gene expression in liver at 2.5 to 10 mg/kg/day, ip administered for 4 weeks by RT-qPCR analysis; assay type: functional, organism-based; conditions: dose 2.5-10 mg/kg/day
Mus musculus [26] = experiment: Antidiabetic activity in male db/db mouse model assessed as downregulation of FASN gene expression in liver at 2.5 to 10 mg/kg/day, ip administered for 4 weeks by RT-qPCR analysis; assay type: functional, organism-based; conditions: dose 2.5-10 mg/kg/day

SMILES: Cc1ccc(S(=O)(=O)Oc2ccc(S3(=O)=N[Se]c4cc(OS(=O)(=O)c5ccc(C)cc5)ccc43)cc2)cc1 (stereo unspecified)
- IC50 [1]: 346 nM
- Activity [2]: Active
- inhibition (3T3-L1 [3]): Active
- inhibition (3T3-L1 [4]): Active
- Activity (3T3-L1 [5]): Active
- Activity (Mus musculus [6]): Active; Superior To That Of Reference Compound Gw9662
- Activity [7]: Non-toxic
- Activity [8]: Non-toxic
- Activity [9]: Non-toxic
- Activity [10]: Non-toxic
- Activity [11]: Non-toxic
- inhibition (Mus musculus [12]): Active
- inhibition (Mus musculus [13]): Active
- Activity (Mus musculus [14]): Active
- Activity (Mus musculus [15]): Active
- Activity (Mus musculus [16]): Active
- Activity (Mus musculus [17]): Active
- Activity (Mus musculus [18]): inactive
- Activity (Mus musculus [19]): inactive
- Activity (Mus musculus [20]): Active
- Activity (Mus musculus [21]): Active
- Activity (Mus musculus [22]): Active
- Activity (Mus musculus [23]): Active
- Activity (Mus musculus [24]): Active
- Activity (Mus musculus [25]): Active
- Activity (Mus musculus [26]): Active
